Experimental data as given in patent US8946203B2, “Benzodioxane inhibitors of leukotriene production” (Boehringer Ingelheim International GmbH, priority 2012, dated 2015).
Where two headings read alike, the source gives them in different places.

Tests used:
[1] = molecular target: T1, human LTA4 hydrolase (Homo sapiens, UniProt P09960); test: LTA4H Enzyme assay (cleavage of Arg-AMC, fluorescence); assay type: biochemical
T1 sequence (P09960 1-611): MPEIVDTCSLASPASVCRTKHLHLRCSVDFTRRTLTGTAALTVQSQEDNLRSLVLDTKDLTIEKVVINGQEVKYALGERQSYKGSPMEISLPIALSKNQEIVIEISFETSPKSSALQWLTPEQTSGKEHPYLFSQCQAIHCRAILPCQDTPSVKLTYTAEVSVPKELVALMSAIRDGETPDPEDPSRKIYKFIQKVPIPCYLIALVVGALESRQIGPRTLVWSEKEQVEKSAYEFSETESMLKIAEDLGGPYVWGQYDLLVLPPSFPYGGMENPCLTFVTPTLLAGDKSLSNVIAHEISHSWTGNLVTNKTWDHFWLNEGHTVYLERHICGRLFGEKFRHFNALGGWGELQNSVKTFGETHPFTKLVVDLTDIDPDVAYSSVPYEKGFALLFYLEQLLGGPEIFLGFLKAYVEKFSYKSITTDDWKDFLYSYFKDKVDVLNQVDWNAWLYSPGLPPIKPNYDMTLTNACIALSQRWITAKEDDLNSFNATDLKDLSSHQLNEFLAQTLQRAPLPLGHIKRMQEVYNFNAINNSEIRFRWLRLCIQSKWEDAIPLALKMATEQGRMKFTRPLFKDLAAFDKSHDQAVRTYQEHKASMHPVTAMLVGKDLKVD
Outline: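 Aminomethylcoumarin release measured fluorimetrically (380/460 nm) after 1 h at room temperature. Reaction: 1 nM final enzyme, 50 μM final Arg-AMC and compound in Tris-HCl pH 7.5 with 100 mM KCl and 0.5% BSA.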

[2] = system: synthesis of LTB4 in human whole blood; test: human whole blood (HWB) assay, LTB4 production inhibition after calcimycin stimulation; assay type: cell-based; conditions: heparinized human whole blood, calcimycin 20 μM, plasma LTB4 by HTRF
Method: The compounds of the invention are additionally tested in a human whole blood (HWB) assay to determine their ability to inhibit the synthesis of LTB4 in a cellular system. Compounds are combined with heparinized human whole blood and incubated for 15 minutes at 37° C. Calcimycin (20 μM final, prepared in phosphate-buffered saline, pH 7.4) is then added and the mixture is incubated for another 30 minutes at 37° C. The samples are centrifuged for 5 min at low speed (1500×g) and the plasma layer is removed. Plasma LTB4 concentrations are then measured using an antibody-based homogenous time-resolved fluorescence method (CisBio, Bedford, Mass.). In general, the preferred potency range (IC50) of compounds in the HWB assay is between 10 nM to 10 μM, the more preferred potency range is 10 nM to 1 μM, and the most preferred potency range is 10 nM to 100 nM.

[3] = LTA4H Enzyme 1 nM, Arg-AMC substrate 50 μM, room temperature 1 h, fluorescence, read-out: IC50 values of LTA4H Enzyme assay

SMILES	IC50 [1, 3] [nM]	IC50 [2] [nM]	IC50 [1] [nM]
CC(=O)N[C@H]1[C@@H]2CN(Cc3ccc([C@H]4COc5cccnc5O4)cc3)C[C@@H]21 [Example 250, N-{(1α,5α,6α)-3-[(S)-4-(2,3-Dihydro-[1,4]dioxino[2,3-b]pyridin-3-yl)-benzyl]-3-aza-bicyclo[3.1.0]hex-6-yl}-acetamide]	0.56	84	
O=C(O)C1CCCN(Cc2ccc([C@H]3COc4ccccc4O3)cc2)CC1 (stereo partly drawn) [Example 266, 1-[(S)-4-(2,3-Dihydro-benzo[1,4]dioxin-2-yl)-benzyl]-azepane-4-carboxylic acid]	0.22	98	
[O-][S+]1CCN(Cc2ccc([C@H]3COc4cccnc4O3)cc2)CC1 [Example 295, (S)-3-[4-(1-Oxo-1lambda4-thiomorpholin-4-ylmethyl)-phenyl]-2,3-dihydro-[1,4]dioxino[2,3-b]pyridine]	0.79	120	
CC(C)(O)CNC(=O)C1CCN(Cc2ccc([C@H]3COc4cccnc4O3)cc2)CC1 [Example 255, 1-[(S)-4-(2,3-Dihydro-[1,4]dioxino[2,3-b]pyridin-3-yl)-benzyl]-piperidine-4-carboxylic acid (2-hydroxy-2-methyl-propyl)-amide]	0.17	76	
CCN(Cc1ccc([C@H]2COc3ccccc3O2)cc1)C1CCCC1 [Example 109, N-{4-[(2S)-2,3-dihydro-1,4-benzodioxin-2-yl]benzyl}-N-ethylcyclopentanamine]	0.17	76	
CS(=O)(=O)N1CCC(NCc2ccc([C@H]3COc4ccccc4O3)cc2)CC1 [Example 174, N-{4-[(2S)-2,3-dihydro-1,4-benzodioxin-2-yl]benzyl}-1-(methylsulfonyl)piperidin-4-amine]	0.6	268	
O=C1CCCN1CC1CCCN(Cc2ccc(C3COc4ccccc4O3)cc2)C1 (racemic) [Example 10, 1-({1-[4-(2,3-dihydro-1,4-benzodioxin-2-yl)benzyl]piperidin-3-yl}methyl)pyrrolidin-2-one]	0.75	352	
CC(=O)NCCC(=O)N1CCN(Cc2ccc([C@H]3COc4cccnc4O3)cc2)CC1 [Example 288, N-[3-[4-[[4-[(3S)-2,3-dihydro-[1,4]dioxino[2,3-b]pyridin-3-yl]phenyl]methyl]piperazin-1-yl]-3-oxo-propyl]acetamide]	0.88	150	
NC(=O)c1nnc2n1CCN(Cc1ccc([C@H]3COc4cccnc4O3)cc1)CC2 [Example 245, 6-[(S)-4-(2,3-dihydro-[1,4]dioxino[2,3-b]pyridin-3-yl)-benzyl]-5,6,7,8-tetrahydro-4H-1,2,3a,6-tetraaza-azulene-3-carboxylic acid amide]	0.32	130	
O=C(CO)N1C[C@@H]2CC[C@H]1CN2Cc1ccc([C@H]2COc3cccnc3O2)cc1 [Example 281, 1-{(1S,4S)-5-[(S)-4-(2,3-Dihydro-[1,4]dioxino[2,3-b]pyridin-3-yl)-benzyl]-2,5-diaza-bicyclo[2.2.2]oct-2-yl}-2-hydroxy-ethanone]	0.17	37	
CCCCN(Cc1ccc(C(=O)O)cc1)Cc1ccc([C@H]2COc3ccccc3O2)cc1 [Example 237, 4-[(butyl{4-[(2S)-2,3-dihydro-1,4-benzodioxin-2-yl]benzyl}amino)methyl]benzoic acid]	0.81	95	
c1cnc2c(c1)OC[C@H](c1ccc(CN3[C@H]4CC[C@@H]3CC4)cc1)O2 [Example 145, (3S)-3-{4-[(1s,4s)-7-azabicyclo[2.2.1]hept-7-ylmethyl]phenyl}-2,3-dihydro[1,4]dioxino[2,3-b]pyridine]		28	0.09
CC(=O)NC1CCN(Cc2ccc([C@H]3COc4cccnc4O3)cc2)CC1 [Example 160, N-(1-{4-[(3S)-2,3-dihydro[1,4]dioxino[2,3-b]pyridin-3-yl]benzyl}piperidin-4-yl)acetamide]	0.18	28	
CN(Cc1ccc([C@H]2COc3ccccc3O2)cc1)C1CCCCC1 [Example 67, N-{4-[(2S)-2,3-dihydro-1,4-benzodioxin-2-yl]benzyl}-N-methylcyclohexanamine]	0.61	346	
NC(=O)c1cn2c(n1)CN(Cc1ccc([C@H]3COc4cccnc4O3)cc1)CC2 [Example 243, 7-[(S)-4-(2,3-dihydro-[1,4]dioxino[2,3-b]pyridin-3-yl)-benzyl]-5,6,7,8-tetrahydro-imidazo[1,2-a]pyrazine-2-carboxylic acid amide]	0.42	99	
FC1CCN(Cc2ccc([C@H]3COc4cccnc4O3)cc2)CC1 [Example 155, (3S)-3-{4-[(4-fluoropiperidin-1-yl)methyl]phenyl}-2,3-dihydro[1,4]dioxino[2,3-b]pyridine]	0.28	95	
NC(=O)c1nnc2n1CCN(Cc1ccc([C@H]3COc4cccnc4O3)cc1)C2 [Example 241, 7-[(S)-4-(2,3-Dihydro-[1,4]dioxino[2,3-b]pyridin-3-yl)-benzyl]-5,6,7,8-tetrahydro-[1,2,4]triazolo[4,3-a]pyrazine-3-carboxylic acid amide]	0.5	110	
O=C1NCCC12CCN(Cc1ccc([C@H]3COc4cccnc4O3)cc1)CC2 [Example 125, 8-[(S)-4-(2,3-Dihydro-[1,4]dioxino[2,3-b]pyridin-3-yl)-benzyl]-2,8-diaza-spiro[4.5]decan-1-one]	0.16	39	
CC(=O)N1CCN(Cc2ccc([C@H]3COc4cccnc4O3)cc2)CC1 [Example 185, 1-(4-{4-[(3S)-2,3-dihydro[1,4]dioxin[2,3-b]pyridin-3-yl]benzyl}piperazin-1-yl)ethanone]	0.59	92	
NC(=O)N1CC2CN(Cc3ccc([C@H]4COc5cccnc5O4)cc3)CC2C1 (stereo partly drawn) [Example 272, 5-[(S)-4-(2,3-Dihydro-[1,4]dioxino[2,3-b]pyridin-3-yl)-benzyl]-hexahydro-pyrrolo[3,4-c]pyrrole-2-carboxylic acid amide]	0.09	71	
CC1CCN(Cc2ccc([C@H]3COc4cccnc4O3)cc2)CC1 [Example 137, (3S)-3-{4-[(4-methylpiperidin-1-yl)methyl]phenyl}-2,3-dihydro[1,4]dioxino[2,3-b]pyridine]	0.26	28	
N#Cc1cnc2n1CCN(Cc1ccc([C@H]3COc4cccnc4O3)cc1)C2 [Example 249, 7-[(S)-4-(2,3-Dihydro-[1,4]dioxino[2,3-b]pyridin-3-yl)-benzyl]-5,6,7,8-tetrahydro-imidazo[1,2-a]pyrazine-3-carbonitrile]	0.25	58	
CC(C)(O)C(=O)NC1CCN(Cc2ccc([C@H]3COc4ccccc4O3)cc2)CC1 [Example 220, N-(1-{4-[(2S)-2,3-dihydro-1,4-benzodioxin-2-yl]benzyl}piperidin-4-yl)-2-hydroxy-2-methylpropanamide]	0.47	91	
CCN(C)Cc1ccc([C@H]2COc3cccnc3O2)cc1 [Example 140, N-{4-[(3S)-2,3-dihydro[1,4]dioxino[2,3-b]pyridin-3-yl]benzyl}-N-methylethanamine]	0.38	33	
O=C1CCCN1CC1CCN(Cc2ccc([C@H]3COc4ccccc4O3)cc2)CC1 [Example 99, 1-[(1-{4-[(2S)-2,3-dihydro-1,4-benzodioxin-2-yl]benzyl}piperidin-4-yl)methyl]pyrrolidin-2-one]	0.37	95	
c1cnc2c(c1)OC[C@H](c1ccc(CN3CCOCC3)cc1)O2 [Example 204, (S)-3-(4-Morpholin-4-ylmethyl-phenyl)-2,3-dihydro-[1,4]dioxino[2,3-b]pyridine]	0.15	95	
CC1(O)CCN(Cc2ccc([C@H]3COc4cccnc4O3)cc2)CC1 [Example 276, 1-[(S)-4-(2,3-Dihydro-[1,4]dioxino[2,3-b]pyridin-3-yl)-benzyl]-4-methyl-piperidin-4-ol]	1.2	240	
NC(=O)N[C@@H]1C[C@H]2CC[C@@H](C1)N2Cc1ccc([C@H]2COc3cccnc3O2)cc1 [Example 273, {(exo)-8-[(S)-4-(2,3-Dihydro-[1,4]dioxino[2,3-b]pyridin-3-yl)-benzyl]-8-aza-bicyclo[3.2.1]oct-3-yl}-urea]		110	0.16
